# Measurements published in ChEMBL document CHEMBL3885881, “DrugMatrix”.
# Organism: Rattus norvegicus
# Experiment: DrugMatrix - Regimen: Daily Repeat
# Format: toxicity, organism-based, Sprague-Dawley
# Parameters: regimen Daily Repeat, gender Male, age 6-8 weeks
# Settings: in vivo, po, route oral GAVAGE, vehicle .5 % CMC; for ABSOLUTE BASOPHIL / ABSOLUTE EOSINOPHIL / ABSOLUTE LYMPHOCYTE / ABSOLUTE MONOCYTE / ABSOLUTE SEGMENTED NEUTROPHIL / BASOPHIL / EOSINOPHIL / ERYTHROCYTE COUNT / HEMATOCRIT / HEMOGLOBIN / LEUKOCYTE COUNT / LYMPHOCYTE / MEAN CORPUSCULAR HEMOGLOBIN / MEAN CORPUSCULAR HEMOGLOBIN CONCENTRATION / MEAN CORPUSCULAR VOLUME / MONOCYTE / NEUTROPHIL / NUCLEATED RED BLOOD CELLS / PLATELET COUNT: tissue Blood; for ALANINE AMINOTRANSFERASE / ALBUMIN / ALKALINE PHOSPHATASE / ASPARTATE AMINOTRANSFERASE / BLOOD UREA NITROGEN / CARBON DIOXIDE / CHLORIDE / CHOLESTEROL / CREATINE PHOSPHOKINASE / CREATININE / GLUCOSE / LACTATE DEHYDROGENASE / LIPASE / PHOSPHORUS / POTASSIUM / SODIUM / TOTAL BILIRUBIN / TOTAL PROTEIN / URIC ACID: tissue Plasma
# [1] = 25 mg/kg, 72 h, dose level Low, time 3 day
# [2] = 25 mg/kg, 120 h, dose level Low, time 5 day
# [3] = 1500 mg/kg, 72 h, dose level High, time 3 day
# [4] = 1500 mg/kg, 120 h, dose level High, time 5 day
smiles,measurement,setting,value
Cc1ccc(S(=O)(=O)NC(=O)NN2CCCCCC2)cc1 [TOLAZAMIDE],ABSOLUTE BASOPHIL,[1],0 CELLS/uL
same,ABSOLUTE EOSINOPHIL,[1],281.67 CELLS/uL
same,ABSOLUTE LYMPHOCYTE,[1],14664 CELLS/uL
same,ABSOLUTE MONOCYTE,[1],321 CELLS/uL
same,ABSOLUTE SEGMENTED NEUTROPHIL,[1],2033.33 CELLS/uL
same,BASOPHIL,[1],0%
same,EOSINOPHIL,[1],1.67%
same,ERYTHROCYTE COUNT,[1],5.23 x10E6/uL
same,HEMATOCRIT,[1],32.97%
same,HEMOGLOBIN,[1],12.7 G/DL
same,LEUKOCYTE COUNT,[1],17.3 x10E3/uL
same,LYMPHOCYTE,[1],85%
same,MEAN CORPUSCULAR HEMOGLOBIN,[1],24.27 pg
same,MEAN CORPUSCULAR HEMOGLOBIN CONCENTRATION,[1],38.53 G/DL
same,MEAN CORPUSCULAR VOLUME,[1],63 fL
same,MONOCYTE,[1],2%
same,NEUTROPHIL,[1],11.33%
same,NUCLEATED RED BLOOD CELLS,[1],0 /100WBC
same,PLATELET COUNT,[1],1363.33 x10E3/uL
same,ALANINE AMINOTRANSFERASE,[1],47.33 u/L
same,ALBUMIN,[1],4.3 G/DL
same,ALKALINE PHOSPHATASE,[1],373.67 u/L
same,ASPARTATE AMINOTRANSFERASE,[1],73.33 u/L
same,BLOOD UREA NITROGEN,[1],13.33 mg/dL
same,CARBON DIOXIDE,[1],22 mmol/L
same,CHLORIDE,[1],102.33 MEQ/L
same,CHOLESTEROL,[1],62.67 mg/dL
same,CREATINE PHOSPHOKINASE,[1],209.33 u/L
same,CREATININE,[1],0.17 mg/dL
same,GLUCOSE,[1],152.33 mg/dL
same,LACTATE DEHYDROGENASE,[1],265 u/L
same,LIPASE,[1],9 u/L
same,PHOSPHORUS,[1],13.13 mg/dL
same,POTASSIUM,[1],7.02 MEQ/L
same,SODIUM,[1],143.5 MEQ/L
same,TOTAL BILIRUBIN,[1],0.17 mg/dL
same,TOTAL PROTEIN,[1],5.3 G/DL
same,URIC ACID,[1],1.97 mg/dL
same,ABSOLUTE BASOPHIL,[2],0 CELLS/uL
same,ABSOLUTE EOSINOPHIL,[2],87.33 CELLS/uL
same,ABSOLUTE LYMPHOCYTE,[2],13745 CELLS/uL
same,ABSOLUTE MONOCYTE,[2],575.67 CELLS/uL
same,ABSOLUTE SEGMENTED NEUTROPHIL,[2],1458.67 CELLS/uL
same,BASOPHIL,[2],0%
same,EOSINOPHIL,[2],0.67%
same,ERYTHROCYTE COUNT,[2],6.16 x10E6/uL
same,HEMATOCRIT,[2],38.13%
same,HEMOGLOBIN,[2],13.9 G/DL
same,LEUKOCYTE COUNT,[2],15.87 x10E3/uL
same,LYMPHOCYTE,[2],86.67%
same,MEAN CORPUSCULAR HEMOGLOBIN,[2],22.6 pg
same,MEAN CORPUSCULAR HEMOGLOBIN CONCENTRATION,[2],36.47 G/DL
same,MEAN CORPUSCULAR VOLUME,[2],61.93 fL
same,MONOCYTE,[2],3.67%
same,NEUTROPHIL,[2],9%
same,NUCLEATED RED BLOOD CELLS,[2],0 /100WBC
same,PLATELET COUNT,[2],1264.67 x10E3/uL
same,ALANINE AMINOTRANSFERASE,[2],46.67 u/L
same,ALBUMIN,[2],4.3 G/DL
same,ALKALINE PHOSPHATASE,[2],296.33 u/L
same,ASPARTATE AMINOTRANSFERASE,[2],92.67 u/L
same,BLOOD UREA NITROGEN,[2],17.33 mg/dL
same,CARBON DIOXIDE,[2],23.67 mmol/L
same,CHLORIDE,[2],109.33 MEQ/L
same,CHOLESTEROL,[2],61.67 mg/dL
same,CREATINE PHOSPHOKINASE,[2],320 u/L
same,CREATININE,[2],0.19 mg/dL
same,GLUCOSE,[2],152.33 mg/dL
same,LACTATE DEHYDROGENASE,[2],425.33 u/L
same,LIPASE,[2],9 u/L
same,PHOSPHORUS,[2],11.2 mg/dL
same,POTASSIUM,[2],5.71 MEQ/L
same,SODIUM,[2],148.83 MEQ/L
same,TOTAL BILIRUBIN,[2],0.17 mg/dL
same,TOTAL PROTEIN,[2],6.13 G/DL
same,URIC ACID,[2],1.27 mg/dL
same,ABSOLUTE BASOPHIL,[3],0 CELLS/uL
same,ABSOLUTE EOSINOPHIL,[3],0 CELLS/uL
same,ABSOLUTE LYMPHOCYTE,[3],13270.33 CELLS/uL
same,ABSOLUTE MONOCYTE,[3],328.33 CELLS/uL
same,ABSOLUTE SEGMENTED NEUTROPHIL,[3],801.33 CELLS/uL
same,BASOPHIL,[3],0%
same,EOSINOPHIL,[3],0%
same,ERYTHROCYTE COUNT,[3],5.57 x10E6/uL
same,HEMATOCRIT,[3],35.93%
same,HEMOGLOBIN,[3],13.3 G/DL
same,LEUKOCYTE COUNT,[3],14.4 x10E3/uL
same,LYMPHOCYTE,[3],92%
same,MEAN CORPUSCULAR HEMOGLOBIN,[3],23.9 pg
same,MEAN CORPUSCULAR HEMOGLOBIN CONCENTRATION,[3],37.03 G/DL
same,MEAN CORPUSCULAR VOLUME,[3],64.5 fL
same,MONOCYTE,[3],2.33%
same,NEUTROPHIL,[3],5.67%
same,NUCLEATED RED BLOOD CELLS,[3],0 /100WBC
same,PLATELET COUNT,[3],1235.33 x10E3/uL
same,ALANINE AMINOTRANSFERASE,[3],26.33 u/L
same,ALBUMIN,[3],4.3 G/DL
same,ALKALINE PHOSPHATASE,[3],233.33 u/L
same,ASPARTATE AMINOTRANSFERASE,[3],69 u/L
same,BLOOD UREA NITROGEN,[3],17.67 mg/dL
same,CARBON DIOXIDE,[3],25 mmol/L
same,CHLORIDE,[3],106.33 MEQ/L
same,CHOLESTEROL,[3],46.67 mg/dL
same,CREATINE PHOSPHOKINASE,[3],172 u/L
same,CREATININE,[3],0.18 mg/dL
same,GLUCOSE,[3],142 mg/dL
same,LACTATE DEHYDROGENASE,[3],80.67 u/L
same,LIPASE,[3],8 u/L
same,PHOSPHORUS,[3],9.5 mg/dL
same,POTASSIUM,[3],5.38 MEQ/L
same,SODIUM,[3],145.4 MEQ/L
same,TOTAL BILIRUBIN,[3],0.27 mg/dL
same,TOTAL PROTEIN,[3],5.8 G/DL
same,URIC ACID,[3],1.07 mg/dL
same,ABSOLUTE BASOPHIL,[4],0 CELLS/uL
same,ABSOLUTE EOSINOPHIL,[4],47.67 CELLS/uL
same,ABSOLUTE LYMPHOCYTE,[4],13177.33 CELLS/uL
same,ABSOLUTE MONOCYTE,[4],515.33 CELLS/uL
same,ABSOLUTE SEGMENTED NEUTROPHIL,[4],1493 CELLS/uL
same,BASOPHIL,[4],0%
same,EOSINOPHIL,[4],0.33%
same,ERYTHROCYTE COUNT,[4],6.17 x10E6/uL
same,HEMATOCRIT,[4],38.2%
same,HEMOGLOBIN,[4],14.3 G/DL
same,LEUKOCYTE COUNT,[4],15.23 x10E3/uL
same,LYMPHOCYTE,[4],86.67%
same,MEAN CORPUSCULAR HEMOGLOBIN,[4],23.2 pg
same,MEAN CORPUSCULAR HEMOGLOBIN CONCENTRATION,[4],37.47 G/DL
same,MEAN CORPUSCULAR VOLUME,[4],61.93 fL
same,MONOCYTE,[4],3.33%
same,NEUTROPHIL,[4],9.67%
same,NUCLEATED RED BLOOD CELLS,[4],0 /100WBC
same,PLATELET COUNT,[4],1206.33 x10E3/uL
same,ALANINE AMINOTRANSFERASE,[4],28 u/L
same,ALBUMIN,[4],4.7 G/DL
same,ALKALINE PHOSPHATASE,[4],319.67 u/L
same,ASPARTATE AMINOTRANSFERASE,[4],70.67 u/L
same,BLOOD UREA NITROGEN,[4],19 mg/dL
same,CARBON DIOXIDE,[4],25.33 mmol/L
same,CHLORIDE,[4],105.33 MEQ/L
same,CHOLESTEROL,[4],58.33 mg/dL
same,CREATINE PHOSPHOKINASE,[4],168.67 u/L
same,CREATININE,[4],0.2 mg/dL
same,GLUCOSE,[4],138.67 mg/dL
same,LACTATE DEHYDROGENASE,[4],114 u/L
same,LIPASE,[4],9.33 u/L
same,PHOSPHORUS,[4],13.07 mg/dL
same,POTASSIUM,[4],6.1 MEQ/L
same,SODIUM,[4],149.93 MEQ/L
same,TOTAL BILIRUBIN,[4],0.2 mg/dL
same,TOTAL PROTEIN,[4],6.57 G/DL
same,URIC ACID,[4],2.17 mg/dL
